Reference: the NIST ThermoML archive (doi:10.1021/acs.jced.7b01033)

How the values were obtained:
[1] = 100.5 kPa, Liquid, Vibrating tube method
[2] = xn = mol fraction of the nth substance listed; conditions: 100.5 kPa, Liquid, Vibrating tube method

CCCCCCn1cc[n+](C)c1C.O=S(=O)([N-]S(=O)(=O)C(F)(F)F)C(F)(F)F
[1]
Conditions | mass density [kg/m3]
293.15 K | 1362.2
303.15 K | 1353.1
313.15 K | 1344.1
323.15 K | 1335.2
333.15 K | 1326.3
343.15 K | 1317.5
353.15 K | 1308.7

CCCCn1cc[n+](C)c1C.O=S(=O)([N-]S(=O)(=O)C(F)(F)F)C(F)(F)F
[1]
Conditions | mass density [kg/m3]
293.15 K | 1424
303.15 K | 1414.6
313.15 K | 1405.3
323.15 K | 1396
333.15 K | 1386.9
343.15 K | 1377.8
353.15 K | 1368.7

CCC[n+]1ccn(C)c1C.O=S(=O)([N-]S(=O)(=O)C(F)(F)F)C(F)(F)F
[1]
Conditions | mass density [kg/m3]
293.15 K | 1460
303.15 K | 1450.3
313.15 K | 1440.7
323.15 K | 1431.2
333.15 K | 1421.7
343.15 K | 1412.4
353.15 K | 1403

CCn1cc[n+](C)c1C.O=S(=O)([N-]S(=O)(=O)C(F)(F)F)C(F)(F)F
[1]
Conditions | mass density [kg/m3]
293.15 K | 1496.4
303.15 K | 1486.7
313.15 K | 1476.9
323.15 K | 1467.3
333.15 K | 1457.7
343.15 K | 1448.2
353.15 K | 1438.8

CCCCCCn1cc(C)[n+](C)c1CC.O=S(=O)([N-]S(=O)(=O)C(F)(F)F)C(F)(F)F + CCCCCC[n+]1c(C)cn(C)c1CC.O=S(=O)([N-]S(=O)(=O)C(F)(F)F)C(F)(F)F
[2], x1 = 0.813
Conditions | mass density [kg/m3]
293.15 K | 1325.2
303.15 K | 1316.2
313.15 K | 1307.3
323.15 K | 1298.5
333.15 K | 1289.7
343.15 K | 1281
353.15 K | 1272.3

CCCCCCn1cc(C)[n+](C)c1.O=S(=O)([N-]S(=O)(=O)C(F)(F)F)C(F)(F)F + CCCCCC[n+]1cn(C)cc1C.O=S(=O)([N-]S(=O)(=O)C(F)(F)F)C(F)(F)F
[2], x1 = 0.637
Conditions | mass density [kg/m3]
293.15 K | 1352.5
303.15 K | 1343.3
313.15 K | 1334.2
323.15 K | 1325.2
333.15 K | 1316.3
343.15 K | 1307.4
353.15 K | 1298.5

CCCCn1cc(C)[n+](C)c1.O=S(=O)([N-]S(=O)(=O)C(F)(F)F)C(F)(F)F + CCCC[n+]1cn(C)cc1C.O=S(=O)([N-]S(=O)(=O)C(F)(F)F)C(F)(F)F
[2], x1 = 0.637
Conditions | mass density [kg/m3]
313.15 K | 1391.1
323.15 K | 1381
333.15 K | 1372.3
343.15 K | 1363.1
353.15 K | 1353.9

CCCCn1cc(C)[n+](C)c1CC.O=S(=O)([N-]S(=O)(=O)C(F)(F)F)C(F)(F)F + CCCCn1c(C)c[n+](C)c1CC.O=S(=O)([N-]S(=O)(=O)C(F)(F)F)C(F)(F)F
[2], x1 = 0.806
Conditions | mass density [kg/m3]
293.15 K | 1371.2
303.15 K | 1361.9
313.15 K | 1352.8
323.15 K | 1343.7
333.15 K | 1334.7
343.15 K | 1325.8
353.15 K | 1316.9

CCC[n+]1cc(C)n(C)c1CC.O=S(=O)([N-]S(=O)(=O)C(F)(F)F)C(F)(F)F + CCC[n+]1c(C)cn(C)c1CC.O=S(=O)([N-]S(=O)(=O)C(F)(F)F)C(F)(F)F
[2], x1 = 0.763
Conditions | mass density [kg/m3]
293.15 K | 1401.2
303.15 K | 1391.7
313.15 K | 1382.3
323.15 K | 1373
333.15 K | 1363.8
343.15 K | 1354.7
353.15 K | 1345.5

CCCn1cc(C)[n+](C)c1.O=S(=O)([N-]S(=O)(=O)C(F)(F)F)C(F)(F)F + CCCn1c[n+](C)cc1C.O=S(=O)([N-]S(=O)(=O)C(F)(F)F)C(F)(F)F
[2], x1 = 0.629
Conditions | mass density [kg/m3]
293.15 K | 1445.4
303.15 K | 1435.6
313.15 K | 1425.9
323.15 K | 1416.3
333.15 K | 1406.9
343.15 K | 1397.3
353.15 K | 1387.9

CC[n+]1cc(C)n(C)c1.O=S(=O)([N-]S(=O)(=O)C(F)(F)F)C(F)(F)F + CC[n+]1cn(C)cc1C.O=S(=O)([N-]S(=O)(=O)C(F)(F)F)C(F)(F)F
[2], x1 = 0.602
Conditions | mass density [kg/m3]
293.15 K | 1483.2
303.15 K | 1473.3
313.15 K | 1463.4
323.15 K | 1453.6
333.15 K | 1443.9
343.15 K | 1434.2
353.15 K | 1424.6

CCc1n(C)c(C)c[n+]1CC.O=S(=O)([N-]S(=O)(=O)C(F)(F)F)C(F)(F)F + CCc1n(C)cc(C)[n+]1CC.O=S(=O)([N-]S(=O)(=O)C(F)(F)F)C(F)(F)F
[2], x1 = 0.735
Conditions | mass density [kg/m3]
293.15 K | 1431.7
303.15 K | 1422
313.15 K | 1412.6
323.15 K | 1403.1
333.15 K | 1393.8
343.15 K | 1384.6
353.15 K | 1375.3
